Data: US20250346943A1, “DEGRADER COMPOUNDS OF QSOX1 mRNA” (UNIVERSITY OF FLORIDA RESEARCH FOUNDATION, INCORPORATED, priority 2022, published 2025)
Entries after “also recorded” stand apart in the source; their conditions may differ.

Key:
MDA-MB-231 cells = assay: Proliferation assay; format: cell-based, human; conditions: 48 h treatment
Method: Proliferation Assay. MDA-MB-231 cells were seeded in 96-well plates (Corning) at ˜40% confluency and treated with compound or transfected with ASO as described in Cell Culture. Compound was replenished every 16 h by replacing all the growth medium with freshly prepared medium containing same concentration of compounds. After 48 h total treatment period, proliferation was measured by using CellTiter 96 AQueous One Solution Cell Proliferation Assay (Cat #G3582, Promega) per manufacturer's protocol.

SQSTM1 protein = SQSTM1 protein abundance by Western blotting in MDA-MB-231 cells; format: cell-based, human; conditions: F1-Amide 20 μM, F1-RIBOTAC 10 μM, 48 h
Method: Measuring Protein Abundance by Western Blotting. MDA-MB-231 cells were seeded in 6-well plates at ˜50% confluency and treated with vehicle (DMSO) or compound as described above but without EU treatment. After 16 h, the compound-containing growth medium was removed and replaced with fresh medium containing compound (re-dosing). After an additional 32 h incubation, total protein was harvested (48 h total treatment time). The cells were then washed twice with cold 1×DPBS, and total protein was harvested by using Mammalian Protein Extraction Reagent (M-PER, Thermo Scientific) per the manufacturer's protocol. Protein concentration was quantified by using BCA Protein Assay Kit (Pierce), and the proteins were separated by using 10% SDS-polyacrylamide gel (20 μg protein per lane). After gel electrophoresis in 1× Running Buffer (50 mM MOPS, 50 mM Tris-base, pH 7.5, 1 mM EDTA, and 0.1% (w/v) SDS) at 120 V for 1 h, the proteins were transferred to a PVDF membrane (0.45 μm, Cytiva) at 300 mA for 1 h in 1× Transfer Buffer (25 mM Bicine, 25 mM Tris-base, pH 7.5, 1:4 MeOH:H2O). The membrane was blocked with 5% (w/v) non-fat dry milk in TBST (1×TBS containing 0.1% (v/v) Tween-20) for 1 h at room temperature. […] Expression levels of proteins were quantified based on band intensity by using ImageJ. […]

[1] = tested on: wild type (WT) QSOX1 5′ UTR RNA hairpin; assay: In vitro Chem-CLIP and competitive Chem-CLIP with Cy5-labeled WT RNA; format: binding, human
Method: In Vitro Chemical-Crosslinking and Isolation by Pull-down (Chem-CLIP) with Fluorescently Labeled RNA. Cy5-labeled RNA (100 μL, 2 μM) was folded by heating at 95° C. for 2 min in 1× Folding Buffer and cooled on ice. The RNA was then mixed with F1 at the indicated concentrations. The sample was irradiated with UV light (365 nm) for 15 min and then added to 100 μL of azide-disulfide agarose beads (Click Chemistry Tools, 1238-2) pre-washed with 200 μL of 25 mM HEPES, pH 7.0. A click reaction solution was prepared by mixing 30 μL of 250 mM sodium ascorbate, 30 μL of 10 mM CuSO4, and 30 μL of 50 mM THPTA, which was added to the sample. The sample was incubated while rotating at 37° C. for 2 h, briefly centrifuged, and then the supernatant was decanted. The beads were washed six times with 1× Washing Buffer (10 mM Tris-HCl, pH 7, 4 M NaCl, 1 mM EDTA, and 0.05% (v/v) Tween-20) following by incubation with 1× Releasing Buffer (50 mM TCEP and 100 mM K2CO3) at 37° C. for 30 min. An equivalent of iodoacetamide (200 mM) was added to the sample, which was incubated at 37° C. for an additional 30 min. The sample was briefly centrifuged and supernatant containing RNA was carefully transferred to a clean tube. Cy-5 fluorescence in the supernatant was measured with a Molecular Devices SpectraMax M5 plate reader with an excitation wavelength of 640 nm and an emission wavelength of 680 nm. For competitive Chem-CLIP, F1-RIBOTAC was added to the folded the RNA and incubated at room temperature for 15 min prior to the addition of F1. Pull-down was then completed as described above.

[2] = tested on: mutant RNA lacking U-bulge (fully paired RNA); assay: In vitro binding by fluorescence polarization, Cy5-labeled mutant RNA
Method: In Vitro Binding by Measuring Changes in Fluorescence Polarization. Cy5-labeled RNA was folded by heating at 95° C. for 2 min in 1× Folding Buffer and cooled on ice. Serial dilutions of F1 (200 to 0.4 μM, 1:1 dilutions) were prepared in 1× Folding Buffer with 4% (w/v) bovine serum albumin (BSA) with constant DMSO concentration (2% v/v). The compound solutions (10 μL) were added to a well of non-binding 384-well plate (Corning). An equal volume of folded RNA was adding to each well with a final concentration of 50 nM. The samples were incubated at room temperature for 30 min, and then fluorescence polarization was measured with a Molecular Devices SpectraMax M5 plate reader with an excitation wavelength of 640 nm and an emission wavelength of 680 nm.

[3] = tested on: mutant RNA (U-bulge mutated to U/A base pair); assay: Optical melting, mutant model RNA; format: binding
Method: Optical Melting Experiments. The thermal stability of WT and mutant model RNAs in the presence and absence of F1-Amide was measured by optical melting. The RNA ([…]) was prepared in 1× Melting Buffer (8 mM Na2HPO4, pH 7, 10 mM NaCl, and 1 mM EDTA) and heated to 95° C. followed by cooling on ice. F1-Amide was added to the final concentration of 2 mM; an equal volume of DMSO was added to the vehicle sample. The absorbance of the solution at 260 nm was measured by a Beckman Coulter DU800 spectrophotometer as a function of temperature, from 12° C. to 85° C. at a rate of 1° C./min. The background absorbance of buffer with DMSO or compound was subtracted before fitting the curve with MeltWin (v3.5)^7 to determine the melting temperature (Tm) and the Gibbs free energy (ΔG37° C.).

SMILES: CCOC(=O)C1=C(Nc2ccccc2)S/C(=C\c2ccc(OCCOCCOCCOCCNC(=O)CCC(=O)N(C)[C@H]3CC[C@@H](c4ccc(Cl)c(Cl)c4)c4ccccc43)c(O)c2)C1=O [Compound F1-RIBOTAC]
- antiproliferative activity compared to F1-Amide delivered at twice the dose (MDA-MB-231 cells): enhanced activity
- effect on proliferation of MDA-MB-231 cells (MDA-MB-231 cells): dose-dependently reduced proliferation
- effect on SQSTM1 protein levels (SQSTM1 protein): Neither
- competition of F1 cross-linking to the QSOX1-a target site (competitive Chem-CLIP) ([1]; constant concentration of F1, increasing competitor): dose-dependently competed off; also recorded: dose-dependently ablates

SMILES: C#CCCC1(CCC(=O)N(C)[C@H]2CC[C@@H](c3ccc(Cl)c(Cl)c3)c3ccccc32)N=N1 [Compound F1]
- binding to fully paired RNA (U bulge converted to AU base pair) [2]: no detectable binding
- effect on Tm or ΔG37° C. of mutant RNA [3]: No changes
- cross-linking / pull-down of WT QSOX1-a 5′ UTR hairpin ([1]; in vitro Chem-CLIP): selectively cross-linked; also recorded: significantly pulled down
